Data as given in patent publication US20260200939A1, “MOLECULAR GLUE DEGRADER COMPOUNDS AND USES THEREOF” (Novartis AG, priority 2022, published 2026).

Tests used:
BRD4 long = molecular target: T1, BRD4 long (Homo sapiens, UniProt O60885); test: BRD4 (long) degradation assay, Western blotting; type: cell-based
T1 construct: endogenous in cells; host or cells: HEK293T
Protocol: (§1) C33A cells were purchased from American Type Culture Collection (ATCC) and were cultured in Dulbecco's Modified Eagle Medium (DMEM) containing 10% (v/v) fetal bovine serum (FBS) and maintained at 37° C. with 5% CO2. 22RV1 cells were purchased from the ATCC and were cultured in RPMI-1640 Medium containing 10% (v/v) FBS and maintained at 37° C. with 5% CO2. HEK293T cells were obtained from the UC Berkeley Cell Culture Facility and were cultured in DMEM containing 10% (v/v) FBS and maintained at 37° C. with 5% CO2. K562 cells were obtained from the UC Berkeley Cell Culture Facility and were cultured in Iscove's Modified Dulbecco's Medium (IMDM) containing 10% (v/v) FBS and maintained at 37° C. with 5% CO2. MV-4-11 cells were obtained from the ATCC and were cultured in IMDM containing 10% (v/v) FBS and maintained at 37° C. with 5% CO2. A549 cells were obtained from the ATCC and were cultured in F-12K Medium containing 10% (v/v) FBS and maintained at 37° C. with 5% CO2. Mino cells were obtained from the ATCC and were cultured in RPMI-1640 Medium containing 10% (v/v) FBS and maintained at 37° C. with 5% CO2. LNCaP cells were obtained from the ATCC and were cultured in RPMI-1640 Medium containing 10% (v/v) FBS and maintained at 37° C. with 5% CO2. Unless otherwise specified, all cell culture materials were purchased from Gibco. It is not known whether HEK293T cells are from male or female origin.
(§2) Cells were washed twice with cold PBS, scraped, and pelleted by centrifugation (700 g, 5 min, 4° C.). Pellets were resuspended in PBS, sonicated, clarified by centrifugation (12,000 g, 10 min, 4° C.), and lysate was transferred to new low-adhesion microcentrifuge tubes. Proteome concentrations were determined using BCA assay and lysate was diluted to appropriate working concentrations.
(§3) Proteins were resolved by SDS/PAGE and transferred to nitrocellulose membranes using the Trans-Blot Turbo transfer system (Bio-Rad). Membranes were blocked with 5% BSA in Tris-buffered saline containing Tween 20 (TBS-T) solution for 30 min at RT, washed in TBS-T, and probed with primary antibody diluted in recommended diluent per manufacturer overnight at 4° C. After 3 washes with TBS-T, the membranes were incubated in the dark with IR680- or IR800-conjugated secondary antibodies at 1:10,000 dilution in 5% BSA in TBS-T at RT for 1 h. After 3 additional washes with TBST, blots were visualized using an Odyssey Li-Cor fluorescent scanner. The membranes were stripped using ReBlot Plus Strong Antibody Stripping Solution (EMD Millipore) when additional primary antibody incubations were performed. Antibodies used in this study were CDK4 (Abcam ab108357), Vinculin (Abcam ab129002), GAPDH (Cell Signaling Technology 14C10), RNF126 (Santa Cruz Biotechnology sc-376005), BRD4 (Abcam ab128874), Beta Actin (Cell Signaling Technology 13E5), PDE5 (Abcam ab259945), AR-V7 (Abcam ab273500), c-Abl (Santa Cruz Biotechnology sc-23), SMARCA2 (Abcam ab240648), LRRK2 (Abcam ab133474), BTK (Cell Signaling Technology D3H5), Androgen Receptor (Abcam ab133273).

BRD4 short = molecular target: T2, BRD4 short (Homo sapiens, UniProt O60885); test: BRD4 (short) degradation assay, Western blotting; type: cell-based
T2 construct: endogenous in cells; host or cells: HEK293T
Protocol: as §1, §2, §3

[1] = first value of cell (long/short)
[2] = second value of cell (long/short)

Row | SMILES | DC50 (BRD4 long; [1]) | DC50 (BRD4 short; [2]) | DC50 (BRD4 long; first value of cell, range with lower bound in nM and upper bound in μM) | DC50 (BRD4 short; second value of cell, range with lower bound in nM and upper bound in μM)
1 | COc1ccc(C(=O)/C(C)=C/C(=O)N2CCN(C(=O)C[C@@H]3N=C(c4ccc(Cl)cc4)c4c(sc(C)c4C)-n4c(C)nnc43)CC2)cc1 [Compound 139, (S,E)-4-(4-(2-(4-(4-chlorophenyl)-2,3,9-trimethyl-6H-thieno[3,2-f][1,2,4]triazolo[4,3-a][1,4]diazepin-6-yl)acetyl)piperazin-1-yl)-1-(4-methoxyphenyl)-2-methylbut-2-ene-1,4-dione] | > 1000 nM | > 1000 nM | – | –
2 | COc1ccc(C(=O)/C=C(\C)C(=O)N2CCN(C(=O)C[C@@H]3N=C(c4ccc(Cl)cc4)c4c(sc(C)c4C)-n4c(C)nnc43)CC2)cc1 [Compound 141, (S,E)-1-(4-(2-(4-(4-chlorophenyl)-2,3,9-trimethyl-6H-thieno[3,2-f][1,2,4]triazolo[4,3-a][1,4]diazepin-6-yl)acetyl)piperazin-1-yl)-4-(4-methoxyphenyl)-2-methylbut-2-ene-1,4-dione] | > 1000 nM | > 1000 nM | – | –
3 | COc1ccc(C(=O)/C=C(\C#N)C(=O)N2CCN(C(=O)C[C@@H]3N=C(c4ccc(Cl)cc4)c4c(sc(C)c4C)-n4c(C)nnc43)CC2)cc1 [Compound 144, (S,E)-2-(4-(2-(4-(4-chlorophenyl)-2,3,9-trimethyl-6H-thieno[3,2-f][1,2,4]triazolo[4,3-a][1,4]diazepin-6-yl)acetyl)piperazine-1-carbonyl)-4-(4-methoxyphenyl)-4-oxobut-2-enenitrile] | > 1000 nM | > 1000 nM | – | –
4 | Cc1sc2c(c1C)C(c1ccc(Cl)cc1)=N[C@@H](CC(=O)N[C@H]1C[C@H](NC(=O)/C=C/C(=O)c3ccccc3)C1)c1nnc(C)n1-2 [Compound 204, (E)-N-((1S,3r)-3-(2-((S)-4-(4-chlorophenyl)-2,3,9-trimethyl-6H-thieno[3,2-f][1,2,4]triazolo[4,3-a][1,4]diazepin-6-yl)acetamido)cyclobutyl)-4-oxo-4-phenylbut-2-enamide] | 10 to 100 nM | 10 to 100 nM | – | –
5 | COc1ccc(C(=O)/C=C/C(=O)N2CCN(C(=O)C[C@@H]3N=C(c4ccc(Cl)cc4)c4c(sc(C)c4C)-n4c(C)nnc43)CC2)cn1 [Compound 205, (S,E)-1-(4-(2-(4-(4-chlorophenyl)-2,3,9-trimethyl-6H-thieno[3,2-f][1,2,4]triazolo[4,3-a][1,4]diazepin-6-yl)acetyl)piperazin-1-yl)-4-(6-methoxypyridin-3-yl)but-2-ene-1,4-dione] | 10 to 100 nM | 10 to 100 nM | – | –
6 | COc1ccc(C(=O)/C=C/C(=O)N[C@H]2C[C@@H](NC(=O)C[C@@H]3N=C(c4ccc(Cl)cc4)c4c(sc(C)c4C)-n4c(C)nnc43)C2)cn1 [Compound 206, (E)-N-((1R,3s)-3-(2-((S)-4-(4-chlorophenyl)-2,3,9-trimethyl-6H-thieno[3,2-f][1,2,4]triazolo[4,3-a][1,4]diazepin-6-yl)acetamido)cyclobutyl)-4-(6-methoxypyridin-3-yl)-4-oxobut-2-enamide] | 10 to 100 nM | 10 to 100 nM | – | –
7 | COc1ccc(C(=O)/C=C/C(=O)N[C@H]2C[C@H](NC(=O)C[C@@H]3N=C(c4ccc(Cl)cc4)c4c(sc(C)c4C)-n4c(C)nnc43)C2)cn1 [Compound 207, (E)-N-((1S,3r)-3-(2-((S)-4-(4-chlorophenyl)-2,3,9-trimethyl-6H-thieno[3,2-f][1,2,4]triazolo[4,3-a][1,4]diazepin-6-yl)acetamido)cyclobutyl)-4-(6-methoxypyridin-3-yl)-4-oxobut-2-enamide] | 10 to 100 nM | 10 to 100 nM | – | –
8 | Cc1sc2c(c1C)C(c1ccc(Cl)cc1)=N[C@@H](CC(=O)N[C@H]1C[C@H](NC(=O)/C=C/C(=O)c3ccc4c(c3)OCC4)C1)c1nnc(C)n1-2 [Compound 209, (E)-N-((1S,3r)-3-(2-((S)-4-(4-chlorophenyl)-2,3,9-trimethyl-6H-thieno[3,2-f][1,2,4]triazolo[4,3-a][1,4]diazepin-6-yl)acetamido)cyclobutyl)-4-(2,3-dihydrobenzofuran-6-yl)-4-oxobut-2-enamide] | – | – | 100 to 1000 nM | 100 to 1000 nM
9 | Cc1sc2c(c1C)C(c1ccc(Cl)cc1)=N[C@@H](CC(=O)N[C@H]1C[C@H](NC(=O)/C=C/C(=O)N3CC4(COC4)C3)C1)c1nnc(C)n1-2 [Compound 254, (E)-N-((1S,3r)-3-(2-((S)-4-(4-chlorophenyl)-2,3,9-trimethyl-6H-thieno[3,2-f][1,2,4]triazolo[4,3-a][1,4]diazepin-6-yl)acetamido)cyclobutyl)-4-oxo-4-(2-oxa-6-azaspiro[3.3]heptan-6-yl)but-2-enamide] | – | > 5000 nM | – | –

Second part, the compound after the results:

Row | DC50 (BRD4 long; [1]) | DC50 (BRD4 short; [2]) | DC50 (BRD4 long; first value of cell, range with lower bound in nM and upper bound in μM) | DC50 (BRD4 short; second value of cell, range with lower bound in nM and upper bound in μM) | SMILES
10 | < 100 nM | < 100 nM | – | – | Cc1sc2c(c1C)C(c1ccc(Cl)cc1)=N[C@@H](CC(=O)N1CCN(C(=O)/C=C/C(=O)c3ccccc3)CC1)c1nnc(C)n1-2 [Compound 140, (S,E)-1-(4-(2-(4-(4-chlorophenyl)-2,3,9-trimethyl-6H-thieno[3,2-f][1,2,4]triazolo[4,3-a][1,4]diazepin-6-yl)acetyl)piperazin-1-yl)-4-phenylbut-2-ene-1,4-dione]
11 | < 100 nM | < 100 nM | – | – | COc1ccccc1C(=O)/C=C/C(=O)N1CCN(C(=O)C[C@@H]2N=C(c3ccc(Cl)cc3)c3c(sc(C)c3C)-n3c(C)nnc32)CC1 [Compound 142, (S,E)-1-(4-(2-(4-(4-chlorophenyl)-2,3,9-trimethyl-6H-thieno[3,2-f][1,2,4]triazolo[4,3-a][1,4]diazepin-6-yl)acetyl)piperazin-1-yl)-4-(2-methoxyphenyl)but-2-ene-1,4-dione]
12 | < 100 nM | < 100 nM | – | – | COc1cccc(C(=O)/C=C/C(=O)N2CCN(C(=O)C[C@@H]3N=C(c4ccc(Cl)cc4)c4c(sc(C)c4C)-n4c(C)nnc43)CC2)c1 [Compound 143, (S,E)-1-(4-(2-(4-(4-chlorophenyl)-2,3,9-trimethyl-6H-thieno[3,2-f][1,2,4]triazolo[4,3-a][1,4]diazepin-6-yl)acetyl)piperazin-1-yl)-4-(3-methoxyphenyl)but-2-ene-1,4-dione]
13 | < 100 nM | < 100 nM | – | – | Cc1sc2c(c1C)C(c1ccc(Cl)cc1)=N[C@@H](CC(=O)N1CCN(C(=O)/C=C/C(=O)c3ccc(F)cc3)CC1)c1nnc(C)n1-2 [Compound 202, (S,E)-1-(4-(2-(4-(4-chlorophenyl)-2,3,9-trimethyl-6H-thieno[3,2-f][1,2,4]triazolo[4,3-a][1,4]diazepin-6-yl)acetyl)piperazin-1-yl)-4-(4-fluorophenyl)but-2-ene-1,4-dione]
14 | 10 to 100 nM | 10 to 100 nM | – | – | Cc1sc2c(c1C)C(c1ccc(Cl)cc1)=N[C@@H](CC(=O)N1CCN(C(=O)/C=C/C(=O)c3ccc4c(c3)NC(=O)CO4)CC1)c1nnc(C)n1-2 [Compound 203, (S,E)-1-(4-(2-(4-(4-chlorophenyl)-2,3,9-trimethyl-6H-thieno[3,2-f][1,2,4]triazolo[4,3-a][1,4]diazepin-6-yl)acetyl)piperazin-1-yl)-4-(3-oxo-3,4-dihydro-2H-benzo[b][1,4]oxazin-6-yl)but-2-ene-1,4-dione]
15 | < 10 nM | < 10 nM | – | – | Cc1sc2c(c1C)C(c1ccc(Cl)cc1)=N[C@@H](CC(=O)N1CCN(C(=O)/C=C/C(=O)c3ccc4c(c3)OCC4)CC1)c1nnc(C)n1-2 [Compound 208, (S,E)-1-(4-(2-(4-(4-chlorophenyl)-2,3,9-trimethyl-6H-thieno[3,2-f][1,2,4]triazolo[4,3-a][1,4]diazepin-6-yl)acetyl)piperazin-1-yl)-4-(2,3-dihydrobenzofuran-6-yl)but-2-ene-1,4-dione]
